pEC50: −log10 of the molar value.
What was measured:
Type in all cases: cell-based
[1] = tested on: primary human fibroblasts derived from IPF patients (LL29 cells) treated with TGF-β1; α-smooth muscle actin (αSMA); test: Inhibition of the fibrotic process: αSMA staining in TGF-β1 treated primary human fibroblasts from IPF patients (LL29 cells); details: Fibroblast, 96 h, TGF-β1 20 ng/mL, 4 days, % cells positive for αSMA
From the text: Representative compounds were screened using primary human fibroblasts (derived from IPF patients) treated with TGF-β1 to determine their ability to inhibit the fibrotic process.
Primary human fibroblasts derived from IPF patients (LL29 cells) [^1Xiaoqiu Liu, et. al., “Fibrotic Lung Fibroblasts Show Blunted Inhibition by cAMP Due to Deficient cAMP Response Element-Binding Protein Phosphorylation”, Journal of Pharmacology and Experimental Therapeutics (2005), 315(2), 678-687; ^2Watts, K. L., et. al., “RhoA signaling modulates cyclin D1 expression in human lung fibroblasts; implications for idiopathic pulmonary fibrosis”, Respiratory Research (2006), 7(1), 88] were obtained from American Type Culture Collection (ATCC) and expanded in F12 medium supplemented with 15% Fetal Bovine Serum and Penicillin/Streptomycin.
Each compound was dissolved in DMSO as a 10 mM stock and used to prepare compound source plates. Serial dilution (1:2, 11-point dose-response curves from 10 μM to 1.87 nM) and compound transfer was performed using the ECHO 550 (Labcyte, Sunnyvale, Calif.) into 384-well clear bottom assay plates (Greiner Bio-One) with appropriate DMSO backfill for a final DMSO concentration of 0.1%. LL29 cells are plated at 1,500 cells/well in 80 μL/well F12 medium supplemented with 1% Fetal Bovine Serum. One hour after addition of the cells, TGF-β1 (Peprotech; 20 ng/mL) was added to the plates to induce fibrosis (ref. 1 and 2 above). Wells treated with TGF-β1 and containing DMSO were used as controls. Cells were incubated at 37° C. and 5% CO2 for 4 days. Following incubation for 4 days, SYTOX green nucleic acid stain (Life Technologies [Thermo Fisher Scientific]) was added to the wells at a final concentration of 1 μM and incubated at room temperature for 30 min. Cells were then fixed using 4% formaldehyde (Electron Microscopy Sciences), washed 3 times with PBS followed by blocking and permeabilization using 3% Bovine Serum Albumin (BSA; Sigma) and 0.3% Triton X-100 (Sigma) in PBS. Cells were then stained with antibody specific to α-smooth muscle actin (αSMA; Abcam) (ref. 1 and 2 above) in 3% Bovine Serum Albumin (BSA; Sigma) and 0.3% Triton X-100 (Sigma) in PBS, and incubated overnight at 4° C. Cells were then washed 3 times with PBS, followed by incubation with Alexa Flor-647 conjugated secondary antibody (Life Technologies [Thermo Fisher Scientific]) and DAPI at room temperature for 1 hour. Cells were then washed 3 times with PBS and plates were sealed for imaging. αSMA staining was imaged by excitation at 630 nm and emission at 665 nm and quantified using the Compartmental Analysis program on the CellInsight CX5 (Thermo Scientific). Dead or apoptotic cells were excluded from analysis based on positive SYTOX green staining. % of total cells positive for αSMA were counted in each well and normalized to the average of 11 wells treated with TGF-β1 on the same plate using Dotmatics' Studies Software. The normalized averages (fold change over untreated) of 3 replicate wells for each compound concentration were used to create dose-responses curves and EC50 values were calculated using non-linear regression curve fit in the Dotmatics' Studies Software. For EC50 of >10 μM, the percent inhibition at 10 μM is provided.

SW480 colon cancer cells = test: Cell viability assay (CellTiter-Blue) in SW480 colon cancer cells; details: Homo sapiens, 96 h, four days, CellTiter-Blue
Protocol: Representative compounds were screened using the following assay procedure to assess the effect on cell viability as described below.
Each compound was dissolved in DMSO as a 10 mM stock and used to prepare compound source plates. Serial dilution (1:3, 8-point dose-response curves from 10 μM to 0.0045 μM) and compound transfer was performed using the ECHO 550 (Labcyte, Sunnyvale, Calif.) into 96-well clear bottom, black-walled plates (Corning-Costar).
Approximately 2×10^3 SW480 colon cancer cells were seeded into each well and allowed to incubate in the presence or absence of compound for four days at 37° C./5% CO2. Eight replicates of DMSO-treated cells served as controls and cells treated with compound were performed in duplicate.
After incubation, 20 μL of CellTiter-Blue (Promega) was added to each well allowed to incubate for approximately 3 hours. This reagent was a buffered solution which contains resazurin, metabolically active cells were able to reduce rezarurin (blue) into resorufin (pink) which was highly fluorescent. This measured fluorescence was used as a readout for cell viability.
After incubation, the plates were read at Ex 560 nm Em 590 nm (Cytation 3, BioTek). Dose-response curves were generated and EC50 concentration values were calculated using non-linear regression curve fit in the GraphPad Prism (San Diego, Calif.) or Dotmatics' Studies Software (Bishops Stortford, UK). For EC50 of >10 μM, the percent inhibition at 10 μM is provided.

[2] = tested on: Wnt activity (Sp5-Luc reporter, TCF/LEF binding sites) in SW480 colon carcinoma cells; test: Screening assay for Wnt activity: Sp5-Luc reporter gene assay in stably transduced SW480 cells; details: Homo sapiens, overnight incubation
From the text: The screening assay for Wnt activity is described as follows. Reporter cell lines can be generated by stably transducing cancer cell lines (e.g., colon cancer) or primary cells (e.g., IEC-6 intestinal cells) with a lentiviral construct that includes a Wnt-responsive promoter driving expression of the firefly luciferase gene.
SW480 colon carcinoma cells were transduced with a lentiviral vector expressing luciferase with a human Sp5 promoter consisting of a sequence of eight TCF/LEF binding sites. SW480 cells stably expressing the Sp5-Luc reporter gene and a hygromycin resistance gene were selected by treatment with 150 μg/mL of hygromycin for 7 days. These stably transduced SW480 cells were expanded in cell culture and used for all further screening activities. Each compound was dissolved in DMSO as a 10 mM stock and used to prepare compound source plates. Serial dilution (1:3, 10-point dose-response curves starting from 10 μM) and compound transfer was performed using the ECHO 550 (Labcyte, Sunnyvale, Calif.) into 384-well white solid bottom assay plates (Greiner Bio-One) with appropriate DMSO backfill for a final DMSO concentration of 0.1%. For Sp5-Luc reporter gene assays, the cells were plated at 4,000 cells/well in 384-well plates with medium containing 1% fetal bovine serum and incubated overnight at 37° C. and 5% CO2. Following incubation, 20 μl of BrightGlo luminescence reagent (Promega) was added to each well of the 384-well assay plates. The plates were placed on an orbital shaker for 2 min and then luminescence was quantified using the Envision (Perkin Elmer) plate reader. Readings were normalized to DMSO only treated cells, and normalized activities were utilized for EC50 calculations using the dose-response log (inhibitor) vs. response-variable slope (four parameters) nonlinear regression feature available in GraphPad Prism 5.0 (or Dotmatics). For EC50 of >10 μM, the percent inhibition at 10 μM is provided.

IL-6 (THP-1 cells) = test: Inhibition of IL-6 in LPS-stimulated THP-1 human monocyte cells (HTRF); details: inhibition of IL-6 in LPS-stimulated THP-1 cells, HTRF, 10-point dose-response starting from 10 μM
Protocol: Human monocyte cell line (THP-1 cells; Catalog # TIB-202, ATCC, Manassas, Va.) were cultured in Roswell Park Memorial Institute (RPMI) 1640 Medium (Catalog #21870-100, Buffalo, N.Y.) with 1% L-glutamine, 1% HEPES, 1% Sodium Pyruvate, 2% Sodium Bicarbonate supplemented with 100 units/mL penicillin, 50 μg/mL streptomycin, 2-mercaptoethanol (0.05 mM) [basal medium] and 10% fetal bovine serum (Catalog #16140089, Life Technologies, Carlsbad, Calif.) at 37° C. and 5% CO2.
THP-1 cells were cultured in basal media with 1% FBS for 24 hours before the start of the assay. Each compound was dissolved in DMSO as a 10 mM stock and used to prepare compound source plates. Serial dilution (1:3, 10-point dose-response curves starting from 10 μM) and compound transfer was performed using the ECHO 550 (Labcyte, Sunnyvale, Calif.) into 384-well white low volume assay plates (Greiner Bio-One) with appropriate DMSO backfill for a final DMSO concentration of 0.1%. THP-1 cells were plated at 5000 cells/well in the 384-well plates and incubated at 37° C. for 2 h. 500 ng/mL of LPS was added after 2 hours and cells were incubated for another 22 hours at 37° C. Plates were spun in a centrifuge for 1 minute at […] and a mixture of anti-IL6 XL665, and anti-IL6 Cryptate diluted in reconstitution buffer (Cisbio Inc.) was added to each well. Following incubation for 3 hrs at room temperature, Homogeneous Time-Resolved Fluorescence (HTRF) was measured using the Envision (Perkin Elmer) at 665 nm and […]. The ratio of fluorescence at 665 nm to 620 nm was used as a readout for IL6 quantification. All samples were processed in duplicate. Readings were normalized to DMSO treated cells and normalized activities were utilized for EC50 calculations using the dose-response log (inhibitor) vs. response-variable slope (four parameters) nonlinear regression feature available in GraphPad Prism 5.0 (or Dotmatics). For EC50 of >10 μM, the percent inhibition at 10 μM is provided.

| pEC50 (SW480 colon cancer cells) | pEC50 [2] | pEC50 (IL-6 (THP-1 cells)) | Structure (SMILES) | pEC50 [1] |
| --- | --- | --- | --- | --- |
| 5.42 | 5.47 | 5.44 | CN(C)Cc1cncc(-c2cc3c(-c4cc5c(N6CCN(C)CC6)cccc5[nH]4)n[nH]c3cn2)c1 [Compound 237, N,N-Dimethyl-1-(5-(3-(4-(4-methylpiperazin-1-yl)-1H-indol-2-yl)-1H-pyrazolo[3,4-c]pyridin-5-yl)pyridin-3-yl)methanamine] | 5.14 |
| 5.67 | 5.98 | 5.49 | CCCCC(=O)Nc1cncc(-c2cc3c(-c4cc5c(N6CCN(C)CC6)cccc5[nH]4)n[nH]c3cn2)c1 [Compound 243, N-(5-(3-(4-(4-Methylpiperazin-1-yl)-H-indol-2-yl)-1H-pyrazolo[3,4-c]pyridin-5-yl)pyridin-3-yl)pentanamide] | 6.00 |
| 5.77 | 5.82 | 5.97 | CN1CCN(c2cccc3[nH]c(-c4n[nH]c5cnc(-c6cncnc6)cc45)cc23)CC1 [Compound 251, 3-(4-(4-Methylpiperazin-1-yl)-1H-indol-2-yl)-5-(pyrimidin-5-yl)-1H-pyrazolo[3,4-c]pyridine] | 5.77 |
| 5.90 | 6.81 | 6.70 | CC(C)CC(=O)Nc1cncc(-c2cc3c(-c4cc5ccccc5[nH]4)n[nH]c3cn2)c1 [Compound 254, N-(5-(3-(1H-Indol-2-yl)-1H-pyrazolo[3,4-c]pyridin-5-yl)pyridin-3-yl)-3-methylbutanamide] | 6.86 |
| 5.65 | 6.73 | 7.25 | c1cncc(-c2cc3c(-c4cc5ccccc5[nH]4)n[nH]c3cn2)c1 [Compound 256, 3-(1H-Indol-2-yl)-5-(pyridin-3-yl)-1H-pyrazolo[3,4-c]pyridine] | 7.29 |
| 6.99 | 6.80 | 5.29 | c1cc(-c2ccoc2)c2cc(-c3n[nH]c4cnc(-c5ccncc5)cc34)[nH]c2c1 [Compound 326, 3-(4-(Furan-3-yl)-1H-indol-2-yl)-5-(pyridin-4-yl)-1H-pyrazolo[3,4-c]pyridine] | 5.86 |
| 5.47 | 6.04 | 5.15 | CCC(=O)Nc1cncc(-c2cc3c(-c4cc5c(-c6cccs6)cccc5[nH]4)n[nH]c3cn2)c1 [Compound 337, N-(5-(3-(4-(Thiophen-2-yl)-1H-indol-2-yl)-1H-pyrazolo[3,4-c]pyridin-5-yl)pyridin-3-yl)propionamide] | 6.41 |
| 6.16 | 5.95 | 5.11 | CN(C)c1cncc(-c2cc3c(-c4cc5c(-c6cccs6)cccc5[nH]4)n[nH]c3cn2)c1 [Compound 343, N,N-Dimethyl-5-(3-(4-(thiophen-2-yl)-1H-indol-2-yl)-1H-pyrazolo[3,4-c]pyridin-5-yl)pyridin-3-amine] | 6.87 |
| 5.40 | 5.31 | 5.72 | CCCC(=O)Nc1cncc(-c2cc3c(-c4cc5c(-c6cccs6)cccc5[nH]4)n[nH]c3cn2)c1 [Compound 353, N-(5-(3-(4-(Thiophen-2-yl)-1H-indol-2-yl)-1H-pyrazolo[3,4-c]pyridin-5-yl)pyridin-3-yl)butyramide] | 7.25 |
| 5.46 | 5.75 | 5.84 | c1ccc(CNCc2cncc(-c3cc4c(-c5cc6c(-c7cccs7)cccc6[nH]5)n[nH]c4cn3)c2)cc1 [Compound 360, N-Benzyl-1-(5-(3-(4-(thiophen-2-yl)-1H-indol-2-yl)-1H-pyrazolo[3,4-c]pyridin-5-yl)pyridin-3-yl)methanamine] | 6.43 |
| 5.34 | 5.44 | 5.48 | CN(C)CCNc1cc(F)cc(-c2cccc3[nH]c(-c4n[nH]c5cnc(-c6cncc(NC(=O)Cc7ccccc7)c6)cc45)cc23)c1 [Compound 458, N-(5-(3-(4-(3-((2-(Dimethylamino)ethyl)amino)-5-fluorophenyl)-1H-indol-2-yl)-1H-pyrazolo[3,4-c]pyridin-5-yl)pyridin-3-yl)-2-phenylacetamide] | 5.55 |
